pIC50: −log10 of the molar value. ≈ marks a conversion by molar mass, not a printed value.
What was measured:
Ehrlich = test: cells; settings: Mus musculus
Description: Anticancer activity against mouse EAC cells assessed as reduction in cell viability

[1] = target: Dopamine receptors; D2 & D4 (Homo sapiens, UniProt P14416+P21917); test: Binding affinity to human D2/D4 receptor assessed as inhibition constant; format: protein assay
Pseudomonas aeruginosa = test: Antibacterial activity against Pseudomonas aeruginosa assessed as zone of inhibition; format: functional
Klebsiella aerogenes = test: Antibacterial activity against Enterobacter aerogenes assessed as zone of inhibition; format: functional
Penicillium italicum = test: Antifungal activity against Penicillium italicum assessed as zone of inhibition; format: functional
Bacillus cereus [2] = test: Antibacterial activity against Bacillus cereus assessed as zone of inhibition at 20 mg/ml; format: functional; settings: read-out: IZ
Staphylococcus aureus = test: Antibacterial activity against Staphylococcus aureus assessed as zone of inhibition; format: functional
Fusarium oxysporum = test: Antifungal activity against Fusarium oxysporum assessed as zone of inhibition; format: functional
Escherichia coli = test: Antibacterial activity against Escherichia coli assessed as zone of inhibition; format: functional
Aspergillus niger = test: Antifungal activity against Aspergillus niger assessed as zone of inhibition; format: functional
[3] = Antioxidant activity assessed as DPPH radical scavenging activity; format: functional
Bacillus cereus [4] = test: Antibacterial activity against Bacillus cereus assessed as zone of inhibition; format: functional
Aspergillus ochraceus = test: Antifungal activity against Aspergillus ochraceus assessed as zone of inhibition; format: functional
Serratia marcescens = test: Antibacterial activity against Serratia marcescens assessed as zone of inhibition; format: functional
Proteus mirabilis = test: Antibacterial activity against Proteus mirabilis assessed as zone of inhibition; format: functional
Penicillium chrysogenum = test: Antifungal activity against Penicillium chrysogenum assessed as zone of inhibition; format: functional
Rhizoctonia solani [5] = test: Antifungal activity against Rhizoctonia solani at 150 uM; format: functional, organism-based
Botrytis cinerea [6] = test: Antifungal activity against Botrytis cinerea; format: functional, organism-based
Colletotrichum camelliae = test: Antifungal activity against Colletotrichum camelliae; format: functional, organism-based
Botrytis cinerea [7] = test: Antifungal activity against gray mold Botrytis cinerea assessed as reduction in fungal growth; format: functional; set-up: concentration or dose not given beside the values
Rhizoctonia solani [8] = test: Antifungal activity against Rhizoctonia solani assessed as reduction in fungal growth; format: functional; set-up: concentration or dose not given beside the values
[9] = tested on: Xanthomonas citri pv. malvacearum; test: Antibacterial activity against Xanthomonas citri pv. malvacearum assessed as reduction in bacterial growth; format: functional; set-up: concentration or dose not given beside the values
Erysiphe necator = test: Antifungal activity against powdery mildew Erysiphe necator assessed as reduction in fungal growth; format: functional; set-up: concentration or dose not given beside the values
Fusarium verticillioides = test: Antifungal activity against Fusarium verticillioides assessed as reduction in fungal growth; format: functional; set-up: concentration or dose not given beside the values
Phytophthora = test: Antimicrobial activity against Phytophthora assessed as reduction in microbial growth; format: functional; set-up: concentration or dose not given beside the values
Bacillus subtilis = test: Antibacterial activity against Bacillus subtilis assessed as zone of inhibition; format: functional
[10] = Antiproliferative activity against human U87 cells assessed as reduction in cell viability by MTT assay; format: functional, cell-based, U-87MG ATCC; settings: U-87 MG

Work on `O=c1oc2ccccc2c2nc3c(c(-c4ccccc4)c12)CCC/C3=C\c1ccccc1` yielded a pIC50 (Ehrlich) of 6.89.
In the case of `COc1ccc2c3c(c(=O)oc2c1)CN(Cc1ccc(Cl)c(Cl)c1)CC3`, the Ki [1] was 95 nM.
For `COc1ccc2c3c(c(=O)oc2c1)CN(Cc1ccccc1Cl)CC3`, the Ki [1] was 171 nM.
With `NC1NC=NC2=C1C(c1ccc(Br)cc1)c1c(c3ccccc3oc1=O)O2` (centres undefined) the “inhibition zone (IZ)” value (Pseudomonas aeruginosa) was 18 mm, the “inhibition zone (IZ)” value (Klebsiella aerogenes) was 20 mm and the “inhibition zone (IZ)” value (Penicillium italicum) was 16 mm. For the same molecule, the zone of inhibition at 20000 µg/mL (Bacillus cereus [2]) was 22 mm, the “inhibition zone (IZ)” value (Staphylococcus aureus) was 29 mm and the “inhibition zone (IZ)” value (Fusarium oxysporum) was 18 mm. The “inhibition zone (IZ)” value (Escherichia coli) was 21 mm and the “inhibition zone (IZ)” value (Aspergillus niger) was 14 mm.
In the case of `Cc1ccc2c3c(c(=O)oc2c1)CN(Cc1ccc(F)cc1)CC3`, the Ki [1] was 773 nM.
`CN1CCN(Cc2[se]c3c(=O)oc4ccccc4c3c2Br)CC1` gave a pIC50 [3] of 4.06.
For `CCSc1nn2c(=N)c3c(=O)oc4ccccc4c3nc2s1`, the “inhibition zone (IZ)” value (Aspergillus niger) was 15 mm.
For `COc1ccc2c3c(c(=O)oc2c1)CN(CCc1ccccc1)CC3`, the Ki [1] was 734 nM.
For `O=c1oc2ccccc2c2c1C(c1ccc(Cl)cc1)c1c(ncn3nc(CCl)nc13)O2` (centres undefined), the “inhibition zone (IZ)” value (Bacillus cereus [4]) was 22 mm, the “inhibition zone (IZ)” value (Aspergillus ochraceus) was 19 mm and the “inhibition zone (IZ)” value (Staphylococcus aureus) was 23 mm. For the same molecule, the “inhibition zone (IZ)” value (Serratia marcescens) was 23 mm, the “inhibition zone (IZ)” value (Proteus mirabilis) was 22 mm and the “inhibition zone (IZ)” value (Penicillium chrysogenum) was 19 mm.
In the case of `COc1ccc2c(c1)oc(=O)c1c(C)coc12`, the EC50 (Rhizoctonia solani [5]) was 3.57 µg/mL (≈ 15.5 µM).
For `C=CCOc1ccc2c(c1)oc(=O)c1c(C)c(C)oc12`, the EC50 (Botrytis cinerea [6]) was 1.72 µg/mL (≈ 6.36 µM).
Work on `Cc1coc2c1c(=O)oc1ccccc12` yielded an EC50 (Colletotrichum camelliae) of 8.74 µg/mL (≈ 43.7 µM).
Molecule `COc1ccc2c3c(c(=O)oc2c1)CN(Cc1ccc(F)cc1)CC3` has a Ki [1] of 1350 nM.
With `CC1c2c(c3ccccc3oc2=O)Oc2ncn3nc(-c4ccccc4)nc3c21` (centres undefined) the “inhibition zone (IZ)” value (Bacillus cereus [4]) was 22 mm, the “inhibition zone (IZ)” value (Aspergillus ochraceus) was 19 mm and the “inhibition zone (IZ)” value (Staphylococcus aureus) was 20 mm. For the same molecule, the “inhibition zone (IZ)” value (Serratia marcescens) was 20 mm, the “inhibition zone (IZ)” value (Proteus mirabilis) was 19 mm and the “inhibition zone (IZ)” value (Penicillium chrysogenum) was 17 mm.
Molecule `CN1C(c2ccccc2)Cc2c(c(=O)oc3c2ccc2ccccc23)C1c1ccccc1` (centres undefined) has an Activity (Botrytis cinerea [7]) of 0%, an Activity (Rhizoctonia solani [8]) of 0% and an Activity [9] of 9%. For the same molecule, the Activity (Erysiphe necator) was 8%, the Activity (Fusarium verticillioides) was 14% and the Activity (Phytophthora) was 0%.
With `O=c1oc2ccccc2c2nc(/C=C/c3ccccc3)cc(-c3ccccc3)c12` the pIC50 (Ehrlich) was 6.92.
`COc1ccc2c3c(c(=O)oc2c1)CN(Cc1ccc(Cl)cc1)CC3` showed a Ki [1] of 667 nM.
With `N#CC1=C(N)Oc2c(c(=O)oc3ccccc23)C1c1ccc(Br)cc1` (centres undefined) the “inhibition zone (IZ)” value (Pseudomonas aeruginosa) was 10 mm, the “inhibition zone (IZ)” value (Klebsiella aerogenes) was 10 mm and the “inhibition zone (IZ)” value (Penicillium italicum) was 11 mm. The “inhibition zone (IZ)” value (Bacillus subtilis) was 11 mm, the “inhibition zone (IZ)” value (Bacillus cereus [4]) was 19 mm and the “inhibition zone (IZ)” value (Staphylococcus aureus) was 28 mm. The “inhibition zone (IZ)” value (Fusarium oxysporum) was 20 mm, the “inhibition zone (IZ)” value (Escherichia coli) was 20 mm and the “inhibition zone (IZ)” value (Aspergillus niger) was 12 mm.
Molecule `O=c1[nH]cc(F)c(=O)[nH]1` [FLUOROURACIL] has a pIC50 (Ehrlich) of 6.42.
With `Cc1ccc2c3c(c(=O)oc2c1)C(c1ccccc1)NC(c1ccccc1)C3` (centres undefined) the Activity (Botrytis cinerea [7]) was 0%, the Activity (Rhizoctonia solani [8]) was 13% and the Activity [9] was 0%. It also gave an Activity (Erysiphe necator) of 38%, an Activity (Fusarium verticillioides) of 20% and an Activity (Phytophthora) of 83%.
Work on `COc1ccc(CN2CCc3c(c(=O)oc4cc(OC)ccc34)C2)cc1` yielded a Ki [1] of 69 nM.
`N#CC1=C(N)Oc2c(c(=O)oc3ccc(Br)cc23)C12C(=O)Nc1ccccc12` (centres undefined) showed a pIC50 [10] of 4.11.
With `CC1C2=C(N=CNC2N)Oc2c1c(=O)oc1ccccc21` (centres undefined) the “inhibition zone (IZ)” value (Bacillus cereus [4]) was 22 mm, the “inhibition zone (IZ)” value (Aspergillus ochraceus) was 14 mm and the “inhibition zone (IZ)” value (Staphylococcus aureus) was 21 mm. The “inhibition zone (IZ)” value (Serratia marcescens) was 20 mm, the “inhibition zone (IZ)” value (Proteus mirabilis) was 19 mm and the “inhibition zone (IZ)” value (Penicillium chrysogenum) was 12 mm.
For `COc1ccc(C2SCCNc3c2c(=O)oc2ccccc32)c(O)c1` (centres undefined), the pIC50 [3] was 3.92.

— ChEMBL document CHEMBL5230136, “A review: Biologically active 3,4-heterocycle-fused coumarins” (Eur J Med Chem, 2021)
